According to patent US10221197B2, “Phosphatidylinositol 3-kinase inhibitors” (Gilead Sciences, Inc., priority 2014, dated 2019):
Like-named read-outs stand apart in the source and are kept apart here.

Columns and labels:
Assay type in all cases: biochemical
PI3Kδ = PI3Kδ (Homo sapiens (Human), UniProt O00329); test: TR-FRET enzymatic assay of PI3K isoforms (PI3Kδ); settings: 2×Km ATP, 2 μM PIP2, incubated for 30 minutes at 25° C., read-out: δ IC50
Experimental: (§1) The compounds of formula (I) were characterized for their enzymatic activity against the PI3K isoforms. Certain compounds of the present application, including certain compounds of formula (II) and (III) were also characterized for their enzymatic activity against PI3K isoforms. The activities were measured using a time-resolved fluorescence resonance energy transfer (TR-FRET) assay.

PI3Kβ = PI3Kβ (Homo sapiens (Human), UniProt P42338); test: TR-FRET enzymatic assay of PI3K isoforms (PI3Kβ); settings: for IC50: TR-FRET, 2×Km ATP, 2 μM PIP2, incubated for 30 minutes at 25° C., read-out: β IC50; for PI3Kγ/PI3Kβ ratio: ratio of IC50 values, selectivity for PI3Kβ over PI3Kγ
Experimental: as §1

PI3Kγ = PI3Kγ (Homo sapiens (Human), UniProt P48736); test: TR-FRET enzymatic assay of PI3K isoforms (PI3Kγ); settings: read-out: γ IC50
Experimental: as §1

[1] = TR-FRET, 2×Km ATP, 2 μM PIP2, PI3Kγ at 2 nM, incubated for 30 minutes at 25° C.

Chain of PI3Kβ (P42338 whole entry, canonical isoform): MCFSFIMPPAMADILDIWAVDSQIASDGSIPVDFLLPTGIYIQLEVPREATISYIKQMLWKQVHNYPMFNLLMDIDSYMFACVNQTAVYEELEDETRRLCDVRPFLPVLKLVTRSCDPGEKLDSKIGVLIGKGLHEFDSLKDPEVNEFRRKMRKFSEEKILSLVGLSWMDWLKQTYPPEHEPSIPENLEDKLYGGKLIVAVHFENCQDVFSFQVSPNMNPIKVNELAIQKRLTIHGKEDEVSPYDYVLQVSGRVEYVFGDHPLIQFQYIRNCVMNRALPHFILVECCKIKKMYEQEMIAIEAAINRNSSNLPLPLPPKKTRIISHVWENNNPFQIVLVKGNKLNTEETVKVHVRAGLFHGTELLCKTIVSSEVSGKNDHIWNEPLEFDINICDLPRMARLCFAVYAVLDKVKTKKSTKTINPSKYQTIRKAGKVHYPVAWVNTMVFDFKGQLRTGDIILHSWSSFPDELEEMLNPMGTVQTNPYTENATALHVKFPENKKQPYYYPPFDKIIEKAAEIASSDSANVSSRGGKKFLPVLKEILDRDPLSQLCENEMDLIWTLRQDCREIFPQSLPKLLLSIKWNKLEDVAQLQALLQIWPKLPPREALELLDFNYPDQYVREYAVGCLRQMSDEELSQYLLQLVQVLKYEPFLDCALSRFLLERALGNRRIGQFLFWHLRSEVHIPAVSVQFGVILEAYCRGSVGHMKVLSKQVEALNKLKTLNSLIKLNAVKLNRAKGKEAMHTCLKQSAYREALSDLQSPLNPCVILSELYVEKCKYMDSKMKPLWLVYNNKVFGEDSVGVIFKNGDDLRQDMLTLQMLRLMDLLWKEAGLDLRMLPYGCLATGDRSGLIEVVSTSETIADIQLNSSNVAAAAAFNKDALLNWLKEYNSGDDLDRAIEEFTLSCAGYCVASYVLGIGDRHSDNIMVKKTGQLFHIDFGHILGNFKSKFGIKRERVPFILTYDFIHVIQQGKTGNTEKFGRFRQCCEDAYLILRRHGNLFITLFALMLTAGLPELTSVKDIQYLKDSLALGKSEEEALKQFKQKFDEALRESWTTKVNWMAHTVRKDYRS
Chain of PI3Kβ (P27986 whole entry partner, canonical isoform): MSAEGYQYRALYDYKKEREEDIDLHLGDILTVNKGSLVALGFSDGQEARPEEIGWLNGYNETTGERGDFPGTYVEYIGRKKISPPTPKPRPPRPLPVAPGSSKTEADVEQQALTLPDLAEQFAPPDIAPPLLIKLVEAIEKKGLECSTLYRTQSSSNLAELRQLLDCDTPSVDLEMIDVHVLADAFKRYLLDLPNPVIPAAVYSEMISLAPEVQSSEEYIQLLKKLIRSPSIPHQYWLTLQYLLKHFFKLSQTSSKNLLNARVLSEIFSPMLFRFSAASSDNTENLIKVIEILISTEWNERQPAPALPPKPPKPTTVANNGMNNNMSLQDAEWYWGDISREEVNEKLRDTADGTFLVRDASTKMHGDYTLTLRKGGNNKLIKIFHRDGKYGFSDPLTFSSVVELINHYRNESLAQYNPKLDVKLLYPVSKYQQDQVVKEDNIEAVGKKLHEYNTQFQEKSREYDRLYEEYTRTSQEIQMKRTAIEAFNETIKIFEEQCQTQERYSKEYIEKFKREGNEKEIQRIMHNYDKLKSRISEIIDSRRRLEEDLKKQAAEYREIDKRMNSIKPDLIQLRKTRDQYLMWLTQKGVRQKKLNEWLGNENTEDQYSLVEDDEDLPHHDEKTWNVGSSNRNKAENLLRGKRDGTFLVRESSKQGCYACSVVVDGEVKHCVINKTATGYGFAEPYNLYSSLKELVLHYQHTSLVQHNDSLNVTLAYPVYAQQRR
Chain of PI3Kδ (O00329 whole entry, canonical isoform): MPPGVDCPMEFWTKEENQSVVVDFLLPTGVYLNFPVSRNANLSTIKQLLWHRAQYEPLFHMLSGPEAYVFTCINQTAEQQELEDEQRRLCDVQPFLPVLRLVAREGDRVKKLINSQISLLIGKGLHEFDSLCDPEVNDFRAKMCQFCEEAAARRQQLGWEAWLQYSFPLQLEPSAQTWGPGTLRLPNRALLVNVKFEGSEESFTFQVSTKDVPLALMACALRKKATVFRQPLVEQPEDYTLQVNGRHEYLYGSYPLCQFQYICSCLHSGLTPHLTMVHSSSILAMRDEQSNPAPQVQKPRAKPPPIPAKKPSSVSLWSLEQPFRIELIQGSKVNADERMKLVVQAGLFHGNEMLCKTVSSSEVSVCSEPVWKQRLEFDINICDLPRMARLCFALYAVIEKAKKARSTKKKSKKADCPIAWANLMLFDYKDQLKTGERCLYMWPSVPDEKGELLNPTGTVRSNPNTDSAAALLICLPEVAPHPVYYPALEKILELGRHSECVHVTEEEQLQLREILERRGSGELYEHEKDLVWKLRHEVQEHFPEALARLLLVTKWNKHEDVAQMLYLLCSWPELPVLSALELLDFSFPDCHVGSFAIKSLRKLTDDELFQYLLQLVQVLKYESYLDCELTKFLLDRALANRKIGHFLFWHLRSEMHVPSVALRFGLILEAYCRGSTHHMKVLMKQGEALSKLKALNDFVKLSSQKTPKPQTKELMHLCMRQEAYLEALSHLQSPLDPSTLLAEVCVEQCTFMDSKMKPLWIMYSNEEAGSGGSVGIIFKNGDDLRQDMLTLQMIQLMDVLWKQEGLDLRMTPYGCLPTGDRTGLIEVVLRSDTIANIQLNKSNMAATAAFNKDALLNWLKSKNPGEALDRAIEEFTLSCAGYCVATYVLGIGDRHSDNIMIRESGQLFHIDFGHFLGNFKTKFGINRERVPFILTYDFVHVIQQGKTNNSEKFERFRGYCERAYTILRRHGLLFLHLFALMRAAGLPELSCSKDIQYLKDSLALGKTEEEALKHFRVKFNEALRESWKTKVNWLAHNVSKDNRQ
Chain of PI3Kδ (P27986 whole entry partner, canonical isoform): as the sequence (P27986 whole entry partner, canonical isoform) above
Chain of PI3Kγ (P48736 whole entry, canonical isoform): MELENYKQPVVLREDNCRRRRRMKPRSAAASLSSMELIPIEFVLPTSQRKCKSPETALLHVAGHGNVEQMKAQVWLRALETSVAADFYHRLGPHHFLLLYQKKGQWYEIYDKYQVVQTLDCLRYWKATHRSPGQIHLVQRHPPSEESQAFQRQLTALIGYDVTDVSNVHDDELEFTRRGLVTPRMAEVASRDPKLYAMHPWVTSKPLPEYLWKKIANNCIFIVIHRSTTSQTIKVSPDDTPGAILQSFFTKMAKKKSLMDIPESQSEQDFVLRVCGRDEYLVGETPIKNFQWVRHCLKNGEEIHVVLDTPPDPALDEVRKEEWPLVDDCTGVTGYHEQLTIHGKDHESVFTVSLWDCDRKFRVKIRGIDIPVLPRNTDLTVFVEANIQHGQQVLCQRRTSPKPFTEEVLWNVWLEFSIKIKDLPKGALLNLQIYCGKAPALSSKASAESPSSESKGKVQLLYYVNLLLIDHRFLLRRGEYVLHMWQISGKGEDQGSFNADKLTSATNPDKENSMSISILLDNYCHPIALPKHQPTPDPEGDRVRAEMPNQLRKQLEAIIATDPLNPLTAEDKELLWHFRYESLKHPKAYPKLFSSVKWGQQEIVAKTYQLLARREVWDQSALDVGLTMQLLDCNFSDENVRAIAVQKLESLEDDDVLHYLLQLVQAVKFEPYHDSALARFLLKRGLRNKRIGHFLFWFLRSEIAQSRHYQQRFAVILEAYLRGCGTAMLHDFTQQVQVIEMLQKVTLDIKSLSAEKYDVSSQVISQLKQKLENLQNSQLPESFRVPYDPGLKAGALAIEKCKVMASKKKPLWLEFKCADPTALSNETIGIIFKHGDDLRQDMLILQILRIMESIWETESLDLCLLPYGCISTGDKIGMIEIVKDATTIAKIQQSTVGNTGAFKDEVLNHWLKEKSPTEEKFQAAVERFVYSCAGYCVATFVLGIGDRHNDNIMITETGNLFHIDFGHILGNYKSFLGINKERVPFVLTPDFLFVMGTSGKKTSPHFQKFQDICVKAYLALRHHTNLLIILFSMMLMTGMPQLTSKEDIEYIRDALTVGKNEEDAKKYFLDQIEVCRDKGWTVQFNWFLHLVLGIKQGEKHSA
Chain of PI3Kγ (Q8WYR1 whole entry partner, canonical isoform): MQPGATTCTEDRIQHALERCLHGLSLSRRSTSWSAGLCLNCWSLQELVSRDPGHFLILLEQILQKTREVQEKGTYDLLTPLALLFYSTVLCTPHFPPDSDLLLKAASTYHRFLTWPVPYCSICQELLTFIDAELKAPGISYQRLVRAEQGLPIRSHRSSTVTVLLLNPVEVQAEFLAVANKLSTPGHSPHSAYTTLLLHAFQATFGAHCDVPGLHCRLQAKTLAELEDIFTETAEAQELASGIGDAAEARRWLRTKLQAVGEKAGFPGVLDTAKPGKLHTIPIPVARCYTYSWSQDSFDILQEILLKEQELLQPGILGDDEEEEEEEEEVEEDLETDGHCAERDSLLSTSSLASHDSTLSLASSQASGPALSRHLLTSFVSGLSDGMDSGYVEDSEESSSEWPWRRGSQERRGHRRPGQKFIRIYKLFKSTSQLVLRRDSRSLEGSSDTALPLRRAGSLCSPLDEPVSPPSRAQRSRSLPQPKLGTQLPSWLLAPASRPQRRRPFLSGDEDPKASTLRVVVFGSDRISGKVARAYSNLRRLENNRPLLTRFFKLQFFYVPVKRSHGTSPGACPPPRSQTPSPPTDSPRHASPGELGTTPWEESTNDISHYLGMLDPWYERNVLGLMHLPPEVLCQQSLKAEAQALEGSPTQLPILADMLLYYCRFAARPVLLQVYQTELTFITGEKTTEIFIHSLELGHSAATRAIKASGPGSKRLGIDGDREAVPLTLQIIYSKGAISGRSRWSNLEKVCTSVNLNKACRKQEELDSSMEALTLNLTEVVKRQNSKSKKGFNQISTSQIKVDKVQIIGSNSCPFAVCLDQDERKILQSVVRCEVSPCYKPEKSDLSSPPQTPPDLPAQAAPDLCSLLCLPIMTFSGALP

| SMILES | IC50 (PI3Kδ) [nM] | IC50 (PI3Kβ) [nM] | IC50 (PI3Kγ; [1]) [nM] | IC50 (PI3Kγ) [nM] | PI3Kγ/PI3Kβ ratio (PI3Kβ) | PI3Kγ/PI3Kβ ratio (PI3Kβ; listed as (S)-2,4-diamino-6-(1-(5-chloro-4-oxo-3-phenyl-3,4-dihydroquinazolin-2-yl)ethyl)) |
| --- | --- | --- | --- | --- | --- | --- |
| CCNC(=O)Nc1ccc(Cl)c(-n2c([C@H](C)Nc3ncnc(N)c3C#N)nc3cccc(Cl)c3c2=O)c1 (atropisomer, axis not shown) [Compound 58, (S)-1-(3-(2-(1-((6-amino-5-cyanopyrimidin-4-yl)amino)ethyl)-5-chloro-4-oxoquinazolin-3(4H)-yl)-4-chlorophenyl)-3-ethylurea] | 24 | 1300 | – | – | – | – |
| CCNC(=O)Nc1ccc(C)c(-n2c([C@H](C)Nc3ncnc(N)c3C#N)nc3cccc(Cl)c3c2=O)c1 (atropisomer, axis not shown) [Compound 61, (S)-1-(3-(2-(1-((6-amino-5-cyanopyrimidin-4-yl)amino)ethyl)-5-chloro-4-oxoquinazolin-3(4H)-yl)-4-methylphenyl)-3-ethylurea] | 8 | 1130 | 2500 | – | – | – |
| Cc1c(C(N)=O)cccc1-n1c([C@H](C)Nc2nc(N)nc(N)c2C#N)nc2cccc(Cl)c2c1=O (single isomer, unassigned) [Compound 5] | 2 | 526 | 81 | – | – | – |
| Cc1c(C(N)=O)cccc1-n1c([C@H](C)Nc2nc(N)nc(N)c2C#N)nc2cccc(Cl)c2c1=O (single isomer, unassigned) [Compound 6] | 4 | 32 | 620 | – | – | – |
| CCC[C@H](Nc1nc(N)nc(N)c1C#N)c1nc2c(Cl)ccc(Cl)c2c(=O)n1-c1cccc(C(N)=O)c1 [Compound 20, (S)-3-(5,8-dichloro-2-(1-((2,6-diamino-5-cyanopyrimidin-4-yl)amino)butyl)-4-oxoquinazolin-3(4H)-yl)benzamide] | – | 11 | 1400 | – | – | – |
| C[C@H](Nc1nc(N)nc(N)c1C#N)c1nc2c(Cl)cc(F)cc2c(=O)n1-c1cccc(C(N)=O)c1 [Compound 29] | – | 8 | 440 | – | – | – |
| CCNC(=O)Nc1cccc(-n2c([C@@H](C)Nc3ncnc(N)c3C#N)nc3cccc(Cl)c3c2=O)c1 [Compound 44, (R)-1-(3-(2-(1-((6-amino-5-cyanopyrimidin-4-yl)amino)ethyl)-5-chloro-4-oxoquinazolin-3(4H)-yl)phenyl)-3-ethylurea] | – | 320 | > 10000 | – | – | – |
| C[C@H](Nc1ncnc(N)c1C#N)c1nc2cccc(Cl)c2c(=O)n1-c1cccc(NC(=O)Nc2c(Cl)cccc2Cl)c1 [Compound 103, (S)-1-(3-(2-(1-((6-amino-5-cyanopyrimidin-4-yl)amino)ethyl)-5-chloro-4-oxoquinazolin-3(4H)-yl)phenyl)-3-(2,6-dichlorophenyl)urea] | 7 | 2 | – | – | – | – |
| CCNC(=O)Nc1cccc(-n2c([C@H](COCc3ccccc3)Nc3ncnc4[nH]cnc34)nc3cccc(Cl)c3c2=O)c1 [Compound 133, (R)-1-(3-(2-(1-((9H-purin-6-yl)amino)-2-(benzyloxy)ethyl)-5-chloro-4-oxoquinazolin-3(4H)-yl)phenyl)-3-ethylurea] | – | 50 | 10000 | – | – | – |
| COCCNC(=O)Nc1cccc(-n2c(C(C)Oc3ncnc4scnc34)nc3cccc(Cl)c3c2=O)c1 (stereo not shown) [Compound 149, 1-(3-(5-chloro-4-oxo-2-(1-(thiazolo[5,4-d]pyrimidin-7-yloxy)ethyl)quinazolin-3(4H)-yl)phenyl)-3-(2-methoxyethyl)urea] | – | 60 | 3500 | – | – | – |
| C[C@H](Nc1nc(N)nc(N)c1C#N)c1nc2cccc(Cl)c2c(=O)n1-c1ccccc1 [Compound X, (S)-2,4-diamino-6-((1-(5-chloro-4-oxo-3-phenyl-3,4-dihydroquinazolin-2-yl)ethyl)amino)pyrimidine-5-carbonitrile, reference compound] | – | – | – | – | 0.6 | less than 1 |

More lines, in order of falling IC50 (PI3Kβ), values ahead:

| IC50 (PI3Kδ) [nM] | IC50 (PI3Kβ) [nM] | IC50 (PI3Kγ; [1]) [nM] | IC50 (PI3Kγ) [nM] | PI3Kγ/PI3Kβ ratio (PI3Kβ) | PI3Kγ/PI3Kβ ratio (PI3Kβ; listed as (S)-2,4-diamino-6-(1-(5-chloro-4-oxo-3-phenyl-3,4-dihydroquinazolin-2-yl)ethyl)) | SMILES |
| --- | --- | --- | --- | --- | --- | --- |
| 78 | 5500 | > 10000 | – | – | – | CCNC(=O)Nc1cccc(-n2c([C@H](C)Nc3ncnc(N)c3C#N)nc3cccc(Cl)c3c2=O)c1Cl (single isomer, unassigned) [Compound 94] |
| 56 | 610 | 2300 | – | – | – | CCNC(=O)Nc1ccc(Cl)c(-n2c([C@H](C)Nc3ncnc(N)c3C#N)nc3cccc(Cl)c3c2=O)c1 (atropisomer, axis not shown) [Compound 59, (S)-1-(3-(2-(1-((6-amino-5-cyanopyrimidin-4-yl)amino)ethyl)-5-chloro-4-oxoquinazolin-3(4H)-yl)-4-chlorophenyl)-3-ethylurea] |
| 4 | 210 | 210 | – | – | – | CCNC(=O)Nc1ccc(C)c(-n2c([C@H](C)Nc3ncnc(N)c3C#N)nc3cccc(Cl)c3c2=O)c1 (atropisomer, axis not shown) [Compound 60, (S)-1-(3-(2-(1-((6-amino-5-cyanopyrimidin-4-yl)amino)ethyl)-5-chloro-4-oxoquinazolin-3(4H)-yl)-4-methylphenyl)-3-ethylurea] |
| – | 170 | > 10000 | – | – | – | CCNC(=O)Nc1cccc(-n2c([C@@H](Nc3ncnc(N)c3C#N)[C@@H](C)CC)nc3cccc(Cl)c3c2=O)c1 [Compound 42, 1-(3-(2-((1S,2S)-1-((6-amino-5-cyanopyrimidin-4-yl)amino)-2-methylbutyl)-5-chloro-4-oxoquinazolin-3(4H)-yl)phenyl)-3-ethylurea] |
| – | 67 | – | – | – | – | CCNC(=O)Nc1cccc(-n2c([C@H](C)Nc3ncnc(N)c3C#N)nc3cccc(C(F)(F)F)c3c2=O)c1 [Compound 51, (S)-1-(3-(2-(1-((6-amino-5-cyanopyrimidin-4-yl)amino)ethyl)-4-oxo-5-(trifluoromethyl)quinazolin-3(4H)-yl)phenyl)-3-ethylurea] |
| 5 | 59 | 1000 | – | – | – | CCNC(=O)Nc1cccc(-n2c([C@H](C)Nc3ncnc(N)c3C#N)nc3cccc(Cl)c3c2=O)c1Cl (single isomer, unassigned) [Compound 95] |
| 8 | 30 | – | – | – | – | C[C@H](Nc1ncnc2[nH]cnc12)c1nc2cccc(Cl)c2c(=O)n1-c1cccc(NC(=O)Nc2ccccc2S(C)(=O)=O)c1 [Compound 145, (S)-1-(3-(2-(1-((9H-purin-6-yl)amino)ethyl)-5-chloro-4-oxoquinazolin-3(4H)-yl)phenyl)-3-(2-(methylsulfonyl)phenyl)urea] |
| 29 | 29 | – | – | – | – | CCNC(=O)Nc1cccc(-n2c([C@H](C)Nc3ncnc4[nH]cnc34)nc3c(F)ccc(Cl)c3c2=O)c1 [Compound 63, (S)-1-(3-(2-(1-((9H-purin-6-yl)amino)ethyl)-5-chloro-8-fluoro-4-oxoquinazolin-3(4H)-yl)phenyl)-3-ethylurea] |
| – | 29 | 2000 | – | – | – | CCNC(=O)Nc1cccc(-n2c([C@H](C)Nc3ncnn4ccnc34)nc3cccc(Cl)c3c2=O)c1 [Compound 71, (S)-1-(3-(5-chloro-2-(1-(imidazo[2,1-f][1,2,4]triazin-4-ylamino)ethyl)-4-oxoquinazolin-3(4H)-yl)phenyl)-3-ethylurea] |
| – | 24 | – | > 10000 | – | – | N#Cc1c(N)ncnc1N[C@@H](COCc1ccccc1)c1nc2cccc(Cl)c2c(=O)n1-c1cccc(NC(=O)NCCCO)c1 [Compound 130, (R)-1-(3-(2-(1-((6-amino-5-cyanopyrimidin-4-yl)amino)-2-(benzyloxy)ethyl)-5-chloro-4-oxoquinazolin-3(4H)-yl)phenyl)-3-(3-hydroxypropyl)urea] |
| 0.7 | 14 | 1300 | – | – | – | C[C@H](Nc1nc(N)nc(N)c1Cl)c1nc2cccc(Cl)c2c(=O)n1-c1cccc(C(N)=O)c1 [Compound 1, (S)-3-(5-chloro-2-(1-((2,6-diamino-5-chloropyrimidin-4-yl)amino)ethyl)-4-oxoquinazolin-3(4H)-yl)benzamide] |
| 3 | 11 | – | – | – | – | C[C@H](Nc1ncnc(N)c1C#N)c1nc2cccc(Cl)c2c(=O)n1-c1cccc(NC(=O)Nc2cc(C(C)(C)C)on2)c1 [Compound 74, (S)-1-(3-(2-(1-((6-amino-5-cyanopyrimidin-4-yl)amino)ethyl)-5 chloro-4-oxoquinazolin-3(4H)-yl)phenyl)-3-(5-(tert-butyl)isoxazol-3-yl)urea] |
| – | 7 | 510 | – | – | – | Cc1nc(N)nc(N[C@H](c2nc3c(Cl)ccc(Cl)c3c(=O)n2-c2cccc(C(N)=O)c2)C2CC2)c1C#N [Compound 13, (S)-3-(2-(((2-amino-5-cyano-6-methylpyrimidin-4-yl)amino)(cyclopropyl)methyl)-5,8-dichloro-4-oxoquinazolin-3(4H)-yl)benzamide] |
| 2 | 5 | – | – | – | – | N#Cc1c(N)nc(N)nc1N[C@H](c1nc2c(Cl)cc(F)cc2c(=O)n1-c1cccc(C(N)=O)c1)C1CC1 [Compound 27, (S)-3-(8-chloro-2-(cyclopropyl((2,6-diamino-5-cyanopyrimidin-4-yl)amino)methyl)-6-fluoro-4-oxoquinazolin-3(4H)-yl)benzamide] |
| – | 5 | 3400 | – | – | – | CCNC(=O)Nc1cccc(-n2c([C@H](C)Nc3ncnc(N)c3C#N)nc3cccc(Cl)c3c2=O)c1 [Compound 90, (S)-1-(3-(2-(1-((6-amino-5-cyanopyrimidin-4-yl)amino)ethyl)-5-chloro-4-oxoquinazolin-3(4H)-yl)phenyl)-3-ethylurea] |
| – | 3 | 800 | – | – | – | C[C@H](Nc1ncnc(N)c1C#N)c1nc2cccc(Cl)c2c(=O)n1-c1cccc(NC(=O)Nc2ccc(F)cc2F)c1 [Compound 105, (S)-1-(3-(2-(1-((6-amino-5-cyanopyrimidin-4-yl)amino)ethyl)-5-chloro-4-oxoquinazolin-3(4H)-yl)phenyl)-3-(2,4-difluorophenyl)urea] |
